Laboratory results reported in PubChem BioAssay AID743508 (Broad Institute, 2014).
pIC50: −log10 of the molar value. The source made the active and inactive calls. The rule behind the calls is not given here.

Target: Drosophila melanogaster bursicon receptor LGR2 (rickets)
Test: inhibition of bursicon-stimulated LGR2 cAMP signaling – cell-based, HEK293, CRE-luciferase, beta-gal normalized, dry powder, set 2, dose response (AID 743508)
Settings: HEK293 LGR2 CRE-luciferase cAMP reporter, antagonist

SMILES	pIC50	IC50
C[C@H]1CCCCO[C@@H](CN(C)C(=O)Nc2ccc3c(c2)OCO3)[C@@H](C)CN([C@@H](C)CO)C(=O)c2cc(NC(=O)NC3CCCCC3)ccc2O1	> 4.46	–
C[C@H](CO)N1C[C@H](C)[C@H](CN(C)C(=O)Nc2ccc3c(c2)OCO3)OCCCC[C@H](C)Oc2ccc(NC(=O)NC3CCCCC3)cc2C1=O	> 4.46	–
C[C@H](CO)N1C[C@H](C)[C@H](CN(C)C(=O)Cc2ccccc2)OCCCC[C@H](C)Oc2ccc(NC(=O)Nc3ccc(C(F)(F)F)cc3)cc2C1=O	–	> 35 µM (inactive)
C[C@H](CO)N1C[C@H](C)[C@H](CN(C)C(=O)Nc2cccc3ccccc23)OCCCC[C@H](C)Oc2ccc(NC(=O)NC3CCCCC3)cc2C1=O	> 4.46	–
COc1ccc(S(=O)(=O)N(C)C[C@@H]2OCCCC[C@H](C)Oc3ccc(NS(=O)(=O)c4ccc(Cl)cc4)cc3C(=O)N([C@@H](C)CO)C[C@@H]2C)cc1	> 4.46	–
COc1ccc(S(=O)(=O)Nc2ccc3c(c2)C(=O)N([C@@H](C)CO)C[C@@H](C)[C@H](CN(C)C(=O)Nc2cccc4ccccc24)OCCCC[C@H](C)O3)cc1	–	> 35 µM (inactive)
C[C@H](CO)N1C[C@H](C)[C@H](CN(C)C(=O)Nc2ccc3c(c2)OCO3)OCCCC[C@H](C)Oc2ccc(NC(=O)C3CCCCC3)cc2C1=O	> 4.46	–
C[C@H](CO)N1C[C@H](C)[C@H](CN(C)C(=O)Nc2cccc3ccccc23)OCCCC[C@H](C)Oc2ccc(NC(=O)CCC(F)(F)F)cc2C1=O	> 4.46	–
C[C@H](CO)N1C[C@H](C)[C@H](CN(C)C(=O)Nc2ccc(C(F)(F)F)cc2)OCCCC[C@H](C)Oc2ccc(NC(=O)CCC(F)(F)F)cc2C1=O	> 4.46	–
COc1ccc(S(=O)(=O)Nc2ccc3c(c2)C(=O)N([C@H](C)CO)C[C@H](C)[C@H](CN(C)S(=O)(=O)c2ccc(F)cc2)OCCCC[C@@H](C)O3)cc1	–	> 35 µM (inactive)
C[C@H](CO)N1C[C@H](C)[C@H](CN(C)C(=O)Nc2cccc3ccccc23)OCCCC[C@H](C)Oc2ccc(NC(=O)c3ccccc3)cc2C1=O	> 4.46	–
COc1ccc(S(=O)(=O)Nc2ccc3c(c2)C(=O)N([C@@H](C)CO)C[C@H](C)[C@@H](CN(C)C(=O)Nc2cccc4ccccc24)OCCCC[C@H](C)O3)cc1	–	> 35 µM (inactive)
C[C@H](CO)N1C[C@H](C)[C@H](CN(C)C(=O)Nc2ccc(C(F)(F)F)cc2)OCCCC[C@H](C)Oc2ccc(NC(=O)NC3CCCCC3)cc2C1=O	> 4.46	–
C[C@H](CO)N1C[C@H](C)[C@H](CN(C)C(=O)Nc2ccc(F)cc2)OCCCC[C@H](C)Oc2ccc(NC(=O)Nc3ccc(F)cc3)cc2C1=O	> 4.46	–
COc1ccc(S(=O)(=O)N(C)C[C@@H]2OCCCC[C@H](C)Oc3ccc(NS(=O)(=O)c4ccc(F)cc4)cc3C(=O)N([C@@H](C)CO)C[C@@H]2C)cc1	> 4.46	–
C[C@@H]1CCCCO[C@H](CN(C)CC2CCCCC2)[C@H](C)CN([C@H](C)CO)C(=O)c2cc(NS(=O)(=O)c3ccccc3)ccc2O1	> 4.46	–
C[C@@H]1CN([C@@H](C)CO)C(=O)c2cc(NC(=O)c3ccncc3)ccc2O[C@@H](C)CCCCO[C@H]1CN(C)C(=O)Nc1cccc2ccccc12	–	> 35 µM (inactive)
C[C@H](CO)N1C[C@H](C)[C@H](CN(C)C(=O)Nc2cccc3ccccc23)OCCCC[C@H](C)Oc2ccc(NC(=O)C3CCCCC3)cc2C1=O	> 4.46	–
C[C@H](CO)N1C[C@H](C)[C@H](CN(C)C(=O)Nc2ccccc2)OCCCC[C@H](C)Oc2ccc(NC(=O)Nc3ccc4c(c3)OCO4)cc2C1=O	> 4.46	–
C[C@H]1CCCCO[C@@H](CN(C)C(=O)Nc2ccc(C(F)(F)F)cc2)[C@@H](C)CN([C@@H](C)CO)C(=O)c2cc(NC(=O)CCC(F)(F)F)ccc2O1	> 4.46	–

Results, then the compound that gave them:

pIC50	IC50	SMILES
> 4.46	–	C[C@H](CO)N1C[C@H](C)[C@H](CN(C)C(=O)Nc2ccc(F)cc2)OCCCC[C@H](C)Oc2ccc(NC(=O)NC3CCCCC3)cc2C1=O
–	> 35 µM (inactive)	Cc1noc(C)c1S(=O)(=O)Nc1ccc2c(c1)C(=O)N([C@H](C)CO)C[C@H](C)[C@H](CN(C)C(=O)Nc1ccc(F)cc1)OCCCC[C@@H](C)O2
> 4.46	–	C[C@H](CO)N1C[C@H](C)[C@H](CN(C)C(=O)Nc2ccccc2)OCCCC[C@H](C)Oc2ccc(NC(=O)C3CCCCC3)cc2C1=O
> 4.46	–	C[C@H](CO)N1C[C@H](C)[C@H](CN(C)C(=O)Nc2ccc(F)cc2)OCCCC[C@H](C)Oc2ccc(NC(=O)Nc3ccccc3)cc2C1=O
> 4.46	–	C[C@H]1CCCCO[C@@H](CN(C)C(=O)Nc2ccccc2)[C@@H](C)CN([C@@H](C)CO)C(=O)c2cc(NC(=O)NC3CCCCC3)ccc2O1
> 4.46	–	C[C@H]1CCCCO[C@@H](CN(C)S(=O)(=O)c2ccc(Cl)cc2)[C@@H](C)CN([C@@H](C)CO)C(=O)c2cc(NC(=O)NC3CCCCC3)ccc2O1
> 4.46	–	COc1ccc(NC(=O)N(C)C[C@@H]2OCCCC[C@H](C)Oc3ccc(NC(=O)NC4CCCCC4)cc3C(=O)N([C@H](C)CO)C[C@@H]2C)cc1
> 4.46	–	C[C@H](CO)N1C[C@H](C)[C@H](CN(C)C(=O)Nc2ccccc2)OCCCC[C@H](C)Oc2ccc(NC(=O)NC3CCCCC3)cc2C1=O
–	> 35 µM (inactive)	COc1ccc(NC(=O)Nc2ccc3c(c2)C(=O)N([C@H](C)CO)C[C@H](C)[C@H](CN(C)CC2CCCCC2)OCCCC[C@H](C)O3)cc1
> 4.46	–	COc1ccc(NC(=O)N(C)C[C@@H]2OCCCC[C@H](C)Oc3ccc(NC(=O)C4CCCCC4)cc3C(=O)N([C@H](C)CO)C[C@@H]2C)cc1
> 4.46	–	C[C@H](CO)N1C[C@H](C)[C@H](CN(C)C(=O)Nc2ccc(F)cc2)OCCCC[C@H](C)Oc2ccc(NC(=O)C3CCCCC3)cc2C1=O
–	> 35 µM (inactive)	Cc1ccc(S(=O)(=O)Nc2ccc3c(c2)C(=O)N([C@H](C)CO)C[C@@H](C)[C@H](CN(C)S(=O)(=O)c2cccs2)OCCCC[C@@H](C)O3)cc1
> 4.46	–	C[C@H]1CCCCO[C@@H](CN(C)C(=O)Nc2ccc(F)cc2)[C@@H](C)CN([C@@H](C)CO)C(=O)c2cc(NC(=O)C3CCCCC3)ccc2O1
> 4.46	–	C[C@H](CO)N1C[C@H](C)[C@H](CN(C)C(=O)Nc2ccccc2)OCCCC[C@H](C)Oc2ccc(NC(=O)CCC(F)(F)F)cc2C1=O
–	> 35 µM (inactive)	C[C@H]1CCCCO[C@H](CN(C)C(=O)Nc2cccc3ccccc23)[C@@H](C)CN([C@@H](C)CO)C(=O)c2cc(NS(=O)(=O)c3cn(C)cn3)ccc2O1
–	> 35 µM (inactive)	CC(C)NC(=O)Nc1ccc2c(c1)C(=O)N([C@H](C)CO)C[C@@H](C)[C@H](CN(C)S(C)(=O)=O)OCCCC[C@H](C)O2
> 4.46	–	C[C@H](CO)N1C[C@H](C)[C@H](CN(C)C(=O)Nc2ccccc2)OCCCC[C@H](C)Oc2ccc(NC(=O)Nc3ccccc3)cc2C1=O
–	> 35 µM (inactive)	C[C@@H]1CN([C@@H](C)CO)C(=O)c2cc(NS(C)(=O)=O)ccc2O[C@@H](C)CCCCO[C@@H]1CN(C)Cc1ccc(C(F)(F)F)cc1
